From ChEMBL document CHEMBL1201862, “PubChem BioAssay data set” (2004)
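Results reflect a 48-hour exposure of cells in 96-well plates to compound at five concentrations. GI50 marks 50% less growth.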 Activity calls are given as the source filed them. No stated cut-off is given here; in the data, active = GI50 up to about 1.1 µM and inactive = higher.

Legend:
Assay in all cases: DTP human tumour cell line panel, 48 h
[1] = system: LOX IMVI
[2] = system: HL-60
[3] = system: HT-29
[4] = system: SF-268
[5] = system: MDA-N
[6] = system: HCT-15
[7] = system: NCI-H522
[8] = system: NCI-H226
[9] = system: KM12
[10] = system: SW-620
[11] = system: SK-OV-3
[12] = system: A549
[13] = system: HCT-116
[14] = system: TK-10
[15] = system: SF-539
[16] = system: U-251
[17] = system: NCI-H23
[18] = system: SR
[19] = system: SK-MEL-2
[20] = system: NCI/ADR-RES

SMILES	GI50 [1]	GI50 [2]	GI50 [3]	GI50 [4]	GI50 [5]	GI50 [6]	GI50 [7]	GI50 [8]	GI50 [9]	GI50 [10]	GI50 [11]	GI50 [12]	GI50 [13]	GI50 [14]	GI50 [15]	GI50 [16]	GI50 [17]	GI50 [18]	GI50 [19]	GI50 [20]
COc1ccc2c(c1)c(=O)c1c(NCCCN(C)CCCNc3ccc4c(=O)n(CCN(C)C)c(=O)n5c6ccc(OC)cc6c(=O)c3c45)ccc3c(=O)n(CCN(C)C)c(=O)n2c31	< 0.01 µM (active)	0.0914 µM (active)	< 0.01 µM (active)	0.0998 µM (active)	0.17 µM (active)	< 0.0258 µM	< 0.0193 µM (active)	< 0.01 µM (active)	< 0.01 µM (active)	< 0.01 µM (active)	0.217 µM (active)	< 0.01 µM (active)	< 0.01 µM (active)	0.119 µM (active)	0.08 µM (active)	< 0.01 µM (active)	< 0.0324 µM (active)	< 0.01 µM (active)	0.514 µM (active)	–
CCOP(=O)(CN1CCNCCN(CP(=O)(OCC)OCC)CC1)OCC	> 100 µM (inactive)	–	> 100 µM (inactive)	> 100 µM (inactive)	> 100 µM (inactive)	> 100 µM	> 100 µM (inactive)	> 100 µM (inactive)	> 100 µM (inactive)	> 100 µM (inactive)	> 100 µM (inactive)	> 100 µM (inactive)	> 100 µM (inactive)	> 100 µM (inactive)	> 100 µM (inactive)	> 100 µM (inactive)	> 100 µM (inactive)	–	> 100 µM (inactive)	> 100 µM (inactive)
COc1ccc(NC(=O)CC/C(CC(=O)C(C)(C)C)=N\NC(=O)C(=O)NN)cc1	> 100 µM (inactive)	> 100 µM (inactive)	> 100 µM (inactive)	> 100 µM (inactive)	–	> 100 µM	44.2 µM (inactive)	> 100 µM (inactive)	> 100 µM (inactive)	> 100 µM (inactive)	> 100 µM (inactive)	> 100 µM (inactive)	> 100 µM (inactive)	> 100 µM (inactive)	> 100 µM (inactive)	> 100 µM (inactive)	> 100 µM (inactive)	> 100 µM (inactive)	> 100 µM (inactive)	–
c1csc(-c2cscc2-c2cccs2)c1	43.2 µM (inactive)	30.3 µM (inactive)	91.4 µM (inactive)	> 100 µM (inactive)	–	35.8 µM	–	27.1 µM (inactive)	22.3 µM (inactive)	48.3 µM (inactive)	32.9 µM (inactive)	39.4 µM (inactive)	29.8 µM (inactive)	91 µM (inactive)	20.3 µM (inactive)	> 100 µM (inactive)	28.2 µM (inactive)	27.7 µM (inactive)	–	42.9 µM (inactive)
Cc1ccc(NC(=O)C(=O)C2C(=O)NC(=O)NC2=O)c(C)c1	> 100 µM (inactive)	> 100 µM (inactive)	> 100 µM (inactive)	> 100 µM (inactive)	–	> 100 µM	> 100 µM (inactive)	17.5 µM (inactive)	> 100 µM (inactive)	> 100 µM (inactive)	> 100 µM (inactive)	> 100 µM (inactive)	> 100 µM (inactive)	> 100 µM (inactive)	> 100 µM (inactive)	> 100 µM (inactive)	> 100 µM (inactive)	> 100 µM (inactive)	> 100 µM (inactive)	–
CC(=O)OC1=C(CC(C)(C)C)C(=O)c2ccccc2C1=O	47.5 µM (inactive)	16 µM (inactive)	33.7 µM (inactive)	21.6 µM (inactive)	–	31.8 µM	–	19.8 µM (inactive)	32.2 µM (inactive)	33 µM (inactive)	25.3 µM (inactive)	–	25.8 µM (inactive)	68.9 µM (inactive)	26.5 µM (inactive)	44.8 µM (inactive)	15.6 µM (inactive)	20.5 µM (inactive)	31.8 µM (inactive)	18.1 µM (inactive)
CN(C(=O)C12C3C4C1C1C2C3C41I)C(C)(C)C (stereo not drawn)	> 100 µM (inactive)	33 µM (inactive)	> 95.1 µM (inactive)	> 100 µM (inactive)	–	63.1 µM	48 µM (inactive)	> 51.5 µM (inactive)	> 100 µM (inactive)	> 100 µM (inactive)	> 100 µM (inactive)	> 100 µM (inactive)	70.1 µM (inactive)	> 57.4 µM (inactive)	> 100 µM (inactive)	> 91.2 µM (inactive)	> 96.6 µM (inactive)	> 29.4 µM (inactive)	> 100 µM (inactive)	–
[O-][n+]1c2ccccc2[n+]([O-])c2ccccc21	> 100 µM (inactive)	11.5 µM (inactive)	86.3 µM (inactive)	> 100 µM (inactive)	–	68.2 µM	> 100 µM (inactive)	> 100 µM (inactive)	–	> 100 µM (inactive)	–	38 µM (inactive)	> 100 µM (inactive)	> 100 µM (inactive)	> 100 µM (inactive)	> 100 µM (inactive)	24 µM (inactive)	13 µM (inactive)	> 100 µM (inactive)	> 100 µM (inactive)
Nc1ccc2ncc(NCc3ccc(F)cc3)nc2c1	75 µM (inactive)	95.9 µM (inactive)	> 100 µM (inactive)	48.2 µM (inactive)	–	> 100 µM	83.2 µM (inactive)	40.9 µM (inactive)	> 100 µM (inactive)	> 100 µM (inactive)	85.9 µM (inactive)	> 100 µM (inactive)	> 100 µM (inactive)	97.3 µM (inactive)	39.6 µM (inactive)	> 100 µM (inactive)	> 100 µM (inactive)	70 µM (inactive)	> 100 µM (inactive)	–
Cc1c(N)c(C#N)c2n(C)c3ncccc3n2c1=O	> 100 µM (inactive)	> 100 µM (inactive)	> 100 µM (inactive)	> 100 µM (inactive)	–	> 100 µM	> 100 µM (inactive)	> 100 µM (inactive)	> 100 µM (inactive)	> 100 µM (inactive)	> 100 µM (inactive)	> 100 µM (inactive)	> 100 µM (inactive)	> 100 µM (inactive)	> 100 µM (inactive)	> 100 µM (inactive)	> 100 µM (inactive)	> 100 µM (inactive)	> 100 µM (inactive)	–
CCOC(=O)C1(C(=O)OCC)C(C(C)(C)C)=C(C)c2ccccc21	12.3 µM (inactive)	9.93 µM (inactive)	10.9 µM (inactive)	16.8 µM (inactive)	–	13.7 µM	10.1 µM (inactive)	14.5 µM (inactive)	12.6 µM (inactive)	15.3 µM (inactive)	24.2 µM (inactive)	18.1 µM (inactive)	6.75 µM (inactive)	30.1 µM (inactive)	18.2 µM (inactive)	15.3 µM (inactive)	10.2 µM (inactive)	39.1 µM (inactive)	18.5 µM (inactive)	–
CCOC(=O)C1C(c2ccc3c(c2)OCO3)c2c(n[nH]c2O)CC1(O)OCC (stereo not drawn)	> 100 µM (inactive)	> 100 µM (inactive)	> 100 µM (inactive)	> 100 µM (inactive)	–	> 100 µM	> 100 µM (inactive)	–	> 100 µM (inactive)	> 100 µM (inactive)	–	> 100 µM (inactive)	> 100 µM (inactive)	> 100 µM (inactive)	> 100 µM (inactive)	> 100 µM (inactive)	> 100 µM (inactive)	> 100 µM (inactive)	> 100 µM (inactive)	> 100 µM (inactive)
CC(=O)Nc1c(C(=N)C#N)ncn1CCO	> 100 µM (inactive)	–	> 100 µM (inactive)	> 100 µM (inactive)	> 100 µM (inactive)	> 100 µM	> 100 µM (inactive)	> 100 µM (inactive)	> 100 µM (inactive)	> 100 µM (inactive)	> 100 µM (inactive)	> 100 µM (inactive)	> 100 µM (inactive)	> 100 µM (inactive)	> 100 µM (inactive)	> 100 µM (inactive)	> 100 µM (inactive)	–	> 100 µM (inactive)	> 100 µM (inactive)
O[C@H]1[C@H](O)[C@H](O)CN2CCC[C@@H](O)[C@H]12	> 100 µM (inactive)	> 100 µM (inactive)	> 100 µM (inactive)	> 100 µM (inactive)	–	> 100 µM	> 100 µM (inactive)	> 100 µM (inactive)	> 100 µM (inactive)	> 100 µM (inactive)	> 100 µM (inactive)	> 100 µM (inactive)	> 100 µM (inactive)	> 100 µM (inactive)	> 100 µM (inactive)	> 100 µM (inactive)	> 100 µM (inactive)	> 100 µM (inactive)	> 100 µM (inactive)	> 100 µM (inactive)
CCOC(=O)c1nnsc1NC(=O)Nc1ccc(Cc2ccc(NC(=O)Nc3snnc3C(=O)OCC)cc2)cc1	–	–	61 µM (inactive)	> 100 µM (inactive)	69.3 µM (inactive)	> 100 µM	–	31.9 µM (inactive)	55.1 µM (inactive)	> 100 µM (inactive)	21.8 µM (inactive)	46.1 µM (inactive)	30.8 µM (inactive)	> 100 µM (inactive)	–	31.3 µM (inactive)	43.6 µM (inactive)	–	> 100 µM (inactive)	> 100 µM (inactive)
COc1cc2c(cn1)[nH]c1ccccc12	> 100 µM (inactive)	> 100 µM (inactive)	> 100 µM (inactive)	88.1 µM (inactive)	–	> 100 µM	61.2 µM (inactive)	> 100 µM (inactive)	> 100 µM (inactive)	46.3 µM (inactive)	> 100 µM (inactive)	> 100 µM (inactive)	> 100 µM (inactive)	> 100 µM (inactive)	> 100 µM (inactive)	> 100 µM (inactive)	> 100 µM (inactive)	> 100 µM (inactive)	> 100 µM (inactive)	–
